Assay results reported in US6761896B1, “Skin cosmetic care system and method” (Unilever Home & Personal Care USA, division of Conopco, Inc., priority 1998, dated 2004).
Where two headings read alike, the source gives them in different places.

Tested on: pig epidermal cells
Assay: DNA synthesis (3H-thymidine) of pig skin organ cultures, epidermis
Format: cell-based
Details: for activity at 20 µM / activity at 200 µM / activity at 2000 µM: Sus scrofa, read-out: DNA synthesis AS % OF CONTROL
Procedure: Freshly excised 2-3 week old piglet skins were obtained from Buckshire Farms, Pa. The pig skins were washed exhaustively first with soap and then with 10× antibiotic containing medium (penicillin, streptomycin). The pig skins were then dermatomed at 200 microns thickness. Seven (7) mm punch biopsies were made from these washed pig skins. The biopsies are then washed again with the 10× antibiotic medium and finally with normal DMEM (2 washes). Three (3) biopsies were incubated in each transwell plates, epidermal side up, with 1 ml of serum free DMEM fed from the bottom of the plates. Experiments were started 3 days after the biopsies were equilibrated under these conditions. Three (3) days after equilibrating the pig skin organ cultures prepared as described above, the medium was removed, 1 ml of fresh medium was added, and the wells were treated with different concentrations of lactic acid by adding from a 100 fold concentrated stock in water, directly into the medium. Simultaneous with the addition of lactic acid, selected cultures were also exposed to the South or North pole of a bar magnet or to the Bioflex magnet. The magnets were placed on top of the culture dish to expose the epidermis directly (the organ culture is carried out with the epidermis side on top). Three (3) days later, medium was changed, lactic acid was re-added, and 10 uCi ^3H-thymidine was added to each well. Plates were incubated for a further 24 hrs. At the end of the incubation period, biopsies were removed, washed in PBS for 1 hr with shaking, and incubated overnight in 10 ml of 2M sodium bromide with shaking to split the epidermis from the dermis. The biopsies were washed with PBS, and the epidermis was peeled off from dermis carefully using a scalpel. The epidermis and dermis were digested with 1 ml of 0.5N NaOH overnight at 50 C, 200 ul was used for counting the radioactivity. The DNA synthesis rate was calculated as cpm/7 mm punch biopsy for dermis or epidermis and in some experiments expressed also as % of controls. All organ culture experiments were conducted with at least 6 replicates, and the mean+/−standard deviation was calculated for statistical analysis using Students t-test.

[1] = Example 5, 0.02 mM LA + South pole of bar magnet
[2] = Example 5, 0.02 mM LA, no magnet
[3] = Example 5, 0.2 mM LA + South pole of bar magnet
[4] = Example 5, 0.2 mM LA, no magnet
[5] = Example 5, 2.0 mM LA + South pole of bar magnet
[6] = Example 5, 2.0 mM LA, no magnet
[7] = Example 6, 0.2 mM LA + North pole
[8] = Example 6, 0.2 mM LA + South pole
[9] = Example 6, 0.2 mM LA, no magnet

## CC(O)C(=O)O (stereo not drawn) [LA, lactic acid]
[1]
  DNA SYNTHESIS (CPM/BIOPSY) MEAN +/- STD: 7915 +/− 2807 CPM/BIOPSY
  activity at 20 µM: 182%
[2]
  DNA SYNTHESIS (CPM/BIOPSY) MEAN +/- STD: 4670 +/− 497 CPM/BIOPSY
  activity at 20 µM: 107%
[3]
  DNA SYNTHESIS (CPM/BIOPSY) MEAN +/- STD: 8402 +/− 512 CPM/BIOPSY
  activity at 200 µM: 193%
[4]
  DNA SYNTHESIS (CPM/BIOPSY) MEAN +/- STD: 5030 +/− 958 CPM/BIOPSY
  activity at 200 µM: 115%
Example 5, 2 mM LA + South pole
  epidermal proliferation, % over control: 165%
[5]
  DNA SYNTHESIS (CPM/BIOPSY) MEAN +/- STD: 11523 +/− 2123 CPM/BIOPSY
  activity at 2000 µM: 265%
Example 5, 2 mM LA + South pole vs additive response
  synergy of LA and South pole on epidermal proliferation: Synergies were observed
Example 5, 2 mM LA alone
  epidermal proliferation, % over control: 43%
[6]
  DNA SYNTHESIS (CPM/BIOPSY) MEAN +/- STD: 6216 +/− 1035 CPM/BIOPSY
  activity at 2000 µM: 143%
Example 5, 0.02 and 0.2 mM lactic acid, no magnet
  effect on epidermal proliferation: no significant effect
[7]
  DNA SYNTHESIS (CPM/BIOPSY) MEAN +/- STD: 69726 +/− 29913 CPM/BIOPSY
  proliferative response, % over control: 112%
  activity at 200 µM: 211%
Example 6, 0.2 mM LA + North pole vs north alone control
  synergy of LA with North pole on epidermal proliferation: not synergistic
[8]
  DNA SYNTHESIS (CPM/BIOPSY) MEAN +/- STD: 81393 +/− 11738 CPM/BIOPSY
  proliferative response, % over control: 146%
  activity at 200 µM: 246%
Example 6, 0.2 mM LA + South pole vs LA alone or South pole alone
  synergy of LA with South pole on epidermal proliferation: synergistic
[9]
  DNA SYNTHESIS (CPM/BIOPSY) MEAN +/- STD: 41076 +/− 24767 CPM/BIOPSY
  activity at 200 µM: 124%
Example 6, 0.2 mM Lactic acid alone
  effect on epidermal proliferation: no significant effect
